Data published in the supplement of paper PMC9780213.

How the values were obtained:
Conditions in all cases: treatment time: 24 h
U2OS = assay: cell count relative to DMSO control (panel A, nuclei/RNA/PMG/mitochondria stain) (fraction of control); higher = more cells (less toxicity)
Description: (§1)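 U2OS-derived cells in 384-well plates were treated for 24 h with a 7-point 2-fold dilution series (top dose 20 µM for most compounds; final max DMSO 1%), then fixed, stained in four marker panels and imaged on a Cellomics ArrayScan. Cell count per treatment (three replicate plates merged) is given as a fraction of DMSO control. Panel A used parental U2OS, panel B U2OS-mOrange2-Peroxisome, panel C1 U2OS-LMNB1-TUBA1B-ACTB (DRAQ5 nuclei).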

U2OS-mOrange2-Peroxisome = assay: cell count relative to DMSO control (panel B, lysosome/peroxisome/lipid stain) (fraction of control); higher = more cells (less toxicity)
Description: as §1

U2OS-LMNB1-TUBA1B-ACTB = assay: cell count relative to DMSO control (panel C1, DRAQ5/ER stain) (fraction of control); higher = more cells (less toxicity)
Description: as §1

Row | Structure (SMILES) | cell count (U2OS; 0.3125 µM) | cell count (U2OS; 0.625 µM) | cell count (U2OS; 1.25 µM) | cell count (U2OS; 2.5 µM) | cell count (U2OS; 5 µM) | cell count (U2OS; 10 µM) | cell count (U2OS; 20 µM) | cell count (U2OS-mOrange2-Peroxisome; 0.3125 µM) | cell count (U2OS-mOrange2-Peroxisome; 0.625 µM) | cell count (U2OS-mOrange2-Peroxisome; 1.25 µM) | cell count (U2OS-mOrange2-Peroxisome; 2.5 µM) | cell count (U2OS-mOrange2-Peroxisome; 5 µM) | cell count (U2OS-mOrange2-Peroxisome; 10 µM) | cell count (U2OS-mOrange2-Peroxisome; 20 µM) | cell count (U2OS-LMNB1-TUBA1B-ACTB; 0.3125 µM) | cell count (U2OS-LMNB1-TUBA1B-ACTB; 0.625 µM) | cell count (U2OS-LMNB1-TUBA1B-ACTB; 1.25 µM) | cell count (U2OS-LMNB1-TUBA1B-ACTB; 2.5 µM) | cell count (U2OS-LMNB1-TUBA1B-ACTB; 5 µM) | cell count (U2OS-LMNB1-TUBA1B-ACTB; 10 µM) | cell count (U2OS-LMNB1-TUBA1B-ACTB; 20 µM) | cell count (U2OS; 0.07812 µM) | cell count (U2OS; 0.15625 µM) | cell count (U2OS-mOrange2-Peroxisome; 0.07812 µM) | cell count (U2OS-mOrange2-Peroxisome; 0.15625 µM) | cell count (U2OS-LMNB1-TUBA1B-ACTB; 0.07812 µM) | cell count (U2OS-LMNB1-TUBA1B-ACTB; 0.15625 µM)
1 | CO[C@@]12[C@H](COC(N)=O)C3=C(C(=O)C(C)=C(N)C3=O)N1C[C@@H]1N[C@@H]12 [mitomycin-c] | 0.677 | 0.708 | 0.683 | 0.639 | 0.59 | 0.531 | 0.278 | 0.696 | 0.65 | 0.706 | 0.72 | 0.6 | 0.363 | 0.279 | 0.882 | 0.789 | 0.864 | 0.812 | 0.746 | 0.672 | 0.38 | – | – | – | – | – | –
2 | O=C1c2c(O)ccc(O)c2C(=O)c2c(NCCNCCO)ccc(NCCNCCO)c21 [mitoxantrone] | 0.662 | 0.503 | 0.411 | 0.455 | 0.447 | – | – | 0.648 | 0.642 | 0.605 | 0.544 | 0.548 | – | – | 0.532 | 0.465 | 0.434 | 0.403 | 0.371 | – | – | 0.956 | 0.887 | 1.16 | 0.953 | 1.05 | 0.693
3 | CC[C@@]1([C@@H]2O[C@@H]([C@H]3O[C@@](O)(CO)[C@H](C)C[C@@H]3C)C[C@@H]2C)CC[C@H]([C@]2(C)CC[C@]3(C[C@H](O)[C@@H](C)[C@@H]([C@@H](C)[C@@H](OC)[C@H](C)C(=O)O)O3)O2)O1 [monensin] | 0.746 | 0.606 | 0.504 | 0.422 | 0.375 | 0.339 | 0.332 | 0.691 | 0.713 | 0.78 | 0.617 | 0.617 | 0.641 | 0.633 | 0.932 | 0.699 | 0.642 | 0.412 | 0.421 | 0.406 | 0.418 | – | – | – | – | – | –
4 | COC(=O)Nc1nc2ccc(C(=O)c3cccs3)cc2[nH]1 [nocodazole] | 1.06 | 0.962 | 1.03 | 0.792 | 0.692 | 0.317 | 0.196 | 0.837 | 0.656 | 0.775 | 0.628 | 0.411 | 0.425 | 0.381 | 1.12 | 0.993 | 1.01 | 0.999 | 0.737 | 0.414 | 0.369 | – | – | – | – | – | –
5 | CC[C@H]1/C=C/C=C/C[C@@H](C)[C@H](O)[C@@](C)(O)C(=O)[C@@H](C)[C@H](O)[C@@H](C)C(=O)[C@@H](C)[C@H](O)[C@@H](C)/C=C/C(=O)O[C@@H]2[C@H](C)[C@H](CC1)O[C@]1(CC[C@H](C)[C@H](C[C@@H](C)O)O1)[C@H]2C [oligomycin-a] | 0.986 | 0.995 | 1.04 | 0.938 | 0.99 | 0.925 | – | 0.906 | 0.944 | 0.895 | 0.858 | 1.21 | 1.09 | – | 1.03 | 1.07 | 1 | 1.03 | 1.09 | 1.05 | – | – | 0.555 | – | 0.52 | – | 0.621
6 | CC(=O)O[C@H]1C(=O)[C@@]2(C)[C@H]([C@H](OC(=O)c3ccccc3)[C@]3(O)C[C@H](OC(=O)[C@H](O)[C@@H](NC(=O)c4ccccc4)c4ccccc4)C(C)=C1C3(C)C)[C@]1(OC(C)=O)CO[C@@H]1C[C@@H]2O [paclitaxel] | 0.956 | 1.05 | 0.97 | 0.928 | 1.04 | 1 | 1 | 0.878 | 0.695 | 0.709 | 0.787 | 0.849 | 0.843 | 1.14 | 1.04 | 1.09 | 1.08 | 1.05 | 0.93 | 1.14 | 0.992 | – | – | – | – | – | –
7 | CCCCCCCCCCCCCCCCCCOP(=O)([O-])OC1CC[N+](C)(C)CC1 [perifosine] | 0.989 | 1.07 | 1.02 | 0.99 | 0.979 | 0.592 | 0.285 | 0.846 | 0.987 | 0.869 | 0.928 | 1.12 | 0.704 | 0.364 | 1.11 | 1.15 | 1.09 | 0.996 | 1.01 | 0.753 | 0.363 | – | – | – | – | – | –
8 | COc1cc([C@@H]2c3cc4c(cc3[C@H](O)[C@H]3COC(=O)[C@@H]23)OCO4)cc(OC)c1OC [picropodophyllin] | 0.88 | 0.899 | 0.978 | 0.94 | 0.929 | 0.701 | – | 0.803 | 1.07 | 0.951 | 1.42 | 1.24 | 1.15 | – | 0.954 | 1.04 | 1.03 | 1.02 | 0.926 | 0.738 | – | – | 0.97 | – | 0.97 | – | 0.924
9 | NS(=O)(=O)C#Cc1ccccc1 [pifithrin-mu] | 1.07 | 1.11 | 1.05 | 0.983 | 0.953 | 1.05 | – | 1.02 | 0.981 | 0.941 | 1.08 | 1.02 | 1.13 | – | 1.09 | 1.06 | 1.08 | 1.07 | 1.1 | 0.97 | – | – | 1.06 | – | 1.01 | – | 1.14
10 | COc1ccc(C[C@H](N)C(=O)N[C@H]2[C@@H](O)[C@H](n3cnc4c(N(C)C)ncnc43)O[C@@H]2CO)cc1 [puromycin] | 1.03 | 1.06 | 0.995 | 1.03 | 0.957 | – | – | 1.07 | 1.09 | 1.11 | 1.29 | 1.52 | – | – | 1.11 | 1.13 | 0.957 | 1.02 | 1.02 | – | – | 1.06 | 1.05 | 1.01 | 0.924 | 1.1 | 0.997
11 | COc1ccc(C2CNC(=O)C2)cc1OC1CCCC1 (centres undefined) [rolipram] | 1.04 | 1.07 | 0.964 | 0.96 | 0.915 | 1 | 0.959 | 0.884 | 0.894 | 1 | 0.96 | 1.13 | 0.726 | 1 | 0.979 | 1.14 | 0.963 | 1.03 | 1.01 | 1.02 | 1.01 | – | – | – | – | – | –
12 | O=C(/C=C\n1cnc(-c2cc(C(F)(F)F)cc(C(F)(F)F)c2)n1)NNc1cnccn1 [selinexor] | 1.01 | 0.994 | 1.03 | 0.971 | 0.9 | 0.779 | 0.502 | 0.905 | 0.657 | 0.758 | 0.705 | 0.676 | 0.598 | 0.484 | 1.1 | 1.06 | 1.12 | 1.15 | 1.07 | 0.834 | 0.693 | – | – | – | – | – | –
13 | CO[C@H]1C[C@@H]2CC[C@@H](C)[C@@](O)(O2)C(=O)C(=O)N2CCCC[C@H]2C(=O)O[C@H]([C@H](C)C[C@@H]2CC[C@@H](O)[C@H](OC)C2)CC(=O)[C@H](C)/C=C(\C)[C@@H](O)[C@@H](OC)C(=O)[C@H](C)C[C@H](C)/C=C/C=C/C=C/1C [sirolimus] | 1.08 | 0.8 | 0.967 | 1.05 | 0.947 | 0.766 | 0.755 | 0.81 | 0.644 | 0.677 | 0.521 | 0.453 | 0.451 | 0.372 | 1.12 | 0.947 | 1.07 | 0.944 | 0.94 | 0.711 | 0.745 | – | – | – | – | – | –
14 | CC(NC(=O)c1ccccc1/N=C/c1c(O)ccc2ccccc12)c1ccccc1 (centres undefined) [sirtinol] | 0.858 | 0.782 | 0.659 | 0.462 | 0.195 | 0.192 | 0.17 | 0.607 | 0.507 | 0.491 | 0.365 | 0.37 | 0.373 | 0.339 | 0.886 | 0.842 | 0.727 | 0.552 | 0.338 | 0.357 | 0.367 | – | – | – | – | – | –
